Experimental data published in patent US4342827A, “Production of enzymes” (Public Health Laboratory Service, Center for Applied …, priority 1978, dated 1982).

Each compound was assayed against T1, glycerol dehydrogenase (GDH) (Geobacillus stearothermophilus, UniProt P32816) (assay: GDH assay against analogous substrates, activities (Vmax) relative to glycerol). Conditions: 30° C., pH 8.5; substrate instead of glycerol.
T1 construct: crude, partially or highly purified (DEAE-cellulose, triazine dye-agarose, gel filtration)
Type: biochemical, Bacillus stearothermophilus
Experimental: The thermostable GDH enzymes produced from the strains of Bacillus stearothermophilus described above typically have a structure composed of four identical or similar sub-units each of molecular weight about 60,000 giving an overall molecular weight of about 240,000±30,000 daltons. When homogeneous and tested by the assay method described below they have a specific activity of at least 5 and normally about 10 to 30 units per mg protein at 30° C. and pH 8.5. When tested under similar conditions against analogous substrates the activities (Vmax) relative to glycerol (100%) were:
Assays for GDH activity were carried out by the following procedure and all references to activities in the present description and claims refer to activity as measured by this assay.
(i) 0.25 M Triethanolamine-HCl (pH 8.5).
(iii) 10 mg/ml NAD (nicotinamide adenine dinucleotide)
600 μl, H2 O, 200 μl triethanolamine-HCl solution, 25 μl NAD solution and 5 to 200 μl of the sample to be assayed were mixed in a cuvette (pathlength 1 cm.). After pre-equilibration to attain 30° C., 100 μl of glycerol solution was added to initiate the reaction.
The reduction of NAD was followed by spectrophotometric means, by observing the absorbance of the solution at 340 nm. Either a water or reagent blank was used, and units were expressed as μmoles of NADH formed per minute at 30° C. with dilution to give ΔOD340 in the range 0.06 to 0.12 per minute.

T1 sequence (P32816 whole entry): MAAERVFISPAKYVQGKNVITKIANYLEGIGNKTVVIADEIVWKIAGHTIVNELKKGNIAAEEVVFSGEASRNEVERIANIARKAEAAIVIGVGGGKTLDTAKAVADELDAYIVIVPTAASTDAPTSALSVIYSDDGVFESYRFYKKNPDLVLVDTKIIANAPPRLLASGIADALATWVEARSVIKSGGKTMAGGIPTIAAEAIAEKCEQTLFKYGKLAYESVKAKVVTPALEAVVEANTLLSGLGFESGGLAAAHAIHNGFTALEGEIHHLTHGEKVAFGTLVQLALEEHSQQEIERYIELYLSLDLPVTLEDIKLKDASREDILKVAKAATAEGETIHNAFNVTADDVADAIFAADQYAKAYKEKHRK

SMILES | activity (Vmax) relative to glycerol (100%) [%]
CC(O)CO (stereo not drawn) [propane1, 2 diol] | 165
O=C(O)C(O)CO (stereo not drawn) [glyceric acid] | < 10
O=C(CO)CO [dihydroxyacetone] | < 10
OCCC(O)S (stereo not drawn) [3-mercapto-propane1, 3 diol] | 49
OCCCO [propane1, 3diol] | 16

Same assay, conditions: high concentrations

SMILES | effect on GDH activity
N [NH4^+ ions] | inhibited
